The text below walks through data of patent US9790185B2, “Process for the preparation of regorafenib and its crystalline forms” (SHILPA MEDICARE LIMITED, priority 2014, dated 2017).

The conditions of data set [1]: cited from earlier work.
The test system of data set [2] is tumour models including colorectal tumour models. The note with it: preclinical studies; broad spectrum of tumour models including colorectal; mediated by antiangiogenic and antiproliferative effects; cited from earlier work.
The conditions of data set [3]: background description of the drug substance; cited from earlier work.
The nature of data set [4]: Stability on handling and storage of crystalline forms. The note with it: without any significant or measurable change in morphology and physicochemical characteristics.
Excerpt: (§1) The merit of the process according to the present invention resides in that product isolated after drying is directly obtained as crystalline Form I of Regorafenib (I). Said material is found devoid of any other crystal lattice and is adequately stable to handle and store for longer time (at least up to more than 6 months) without any significant or measurable change in its morphology and physicochemical characteristics. Crystalline Form I of Regorafenib (I) obtained according to the process of the present invention results in the final API purity by of more than 99.5% w/w, and found to be anhydrous with moisture content of not more than 0.5%.
as §1, with “Form III” for “Form I”, “by HPLC” for “by”

Where two headings read alike, the source gives them in different places.

Consider `CNC(=O)c1cc(Oc2ccc(NC(=O)Nc3ccc(Cl)c(C(F)(F)F)c3)c(F)c2)ccn1` [Regorafenib, 4-[4-({[4-chloro-3-(trifluoromethyl)phenyl]carbamoyl}amino)-3-fluorophenoxy]-N-methylpyridine-2-carboxamide], for which the solubility entry is given as “slightly soluble” in data set [1] (in 2-propanol); “soluble” in data set [1] (in PEG 400 (macrogol)); “sparingly soluble” in data set [1] (in acetone); “slightly soluble” in data set [1] (in acetonitrile); “slightly soluble” in data set [1] (in dichloromethane); “practically insoluable” in data set [1] (in dilute acid solution). Moreover, the solubility result in data set [1] (in dilute alkaline solution) is on record as “practically insoluable”; in data set [1] (in ethanol) it was “slightly soluble”; in data set [1] (in ethyl acetate), “slightly soluble”; in data set [1] (in glycerine), “practically insoluable”; in data set [1] (in methanol), “slightly soluble”; in data set [1] (in n-heptane), “practically insoluable”. Besides, the solubility entry is reported as “slightly soluble” in data set [1] (in propylene glycol), “practically insoluable” in data set [1] (in toluene) and “practically insoluable” in data set [1] (in water). Further, the antitumour activity result in data set [2] is recorded as “demonstrated antitumour activity”. In addition, in data set [3], the hygroscopicity entry is on record as “not hygroscopic”.
On to `CNC(=O)c1cc(Oc2ccc(NC(=O)Nc3ccc(Cl)c(C(F)(F)F)c3)c(F)c2)ccn1` [crystalline Form I of Regorafenib (I), 4-[4-({[4-chloro-3-(trifluoromethyl)phenyl]carbamoyl}amino)-3-fluorophenoxy]-N-methylpyridine-2-carboxamide], for which the “time adequately stable to handle and store” value in data set [4] is on record as “more than 6 months”.
